Source: US6953783B1, “Modulation of gene expression by combination therapy” (MethylGene, Inc., priority 1998, dated 2005)

How the values were obtained:
DNA MeTase protein [1] = experiment: DNA MeTase protein levels by Western blotting in T24 cells; format: cell-based, human
Text: (§1) MG88 was next tested for an ability to inhibit DNA MeTase mRNA in two human neoplastic cells, A549 (human non-small cell lung carcinoma cells) and T24 (human bladder cancer cells). […] MG208 was modified as follows: A equals 2′-deoxyriboadenosine; C equals 2′-deoxyribocytidine; G equals 2′-deoxyriboguanosine; T equals 2′-deoxyribothymidine; A equals riboadenosine; U equals uridine; C equals ribocytidine; and G equals riboguanosine. The underlined bases were 2′-methoxyribose substituted nucleotides. Non-underlined bases indicate deoxyribose nucleosides. The backbone of MG208 consisted of a phosphorothioate linkage between adjoining nucleotides.
The MG88 and MG208 oligonucleotides were diluted to the desired concentration from a 0.1 mM stock solution in the transfection media. Cells were exposed to oligonucleotide plus lipofectin (or lipofectin only) for four hours on day 0 and four hours on day 1 (after each four hour treatment, cells were returned to complete media). On day 2 (i.e., 48 hours after the first treatment on day 0), cells were harvested, whole cell lysates were prepared, and DNA MeTase protein levels were analyzed by Western blotting analysis with a DNA MeTase-specific rabbit polyclonal antibody (generated according to standard techniques of a glutathione S -transferase fusion protein containing the first 10 kDa amino terminus from DNA methyltransferase protein). […] Equal loading of all lanes was confirmed by blotting for α-actin protein levels with an actin-specific rabbit polyclonal antibody (commercially available from Santa Cruz Biotech., Santa Cruz, Calif.).
Next, to determine whether de novo methylation and silencing of the re-expressed p16^ink4A gene occurred when DNA MeTase returned to normal levels, T24 cells were transfected for 10 consecutive days with either 40 or 75 nM or MG88 or MG208. […] Cell lysates of the T24 cells transfected for ten days were analyzed by Western blotting analysis for expression of DNA MeTase protein,p16^ink4A protein, and actin protein (as a control for equal loading) 3, 5, and 7 days after MG88 transfection.

pRb = experiment: Western blotting for phosphorylated pRb in T24 cells; format: cell-based, human; details: T24 cells reactivated to express p16^ink4A after transfection
human DNA MeTase mRNA = experiment: Antisense inhibition of DNA MeTase mRNA (screen of phosphorothioate oligonucleotides); format: cell-based
Text: As shown in FIG. 1 the two […] regions were identified to be highly sensitive to antisense inhibition were targeted by MG88 having the sequence [NT] ID NO:1) (this oligonucleotide is targeted to the […] 5'UTR at nucleotides 532 to 513) and MG98 having the sequence [NT] ID NO:2) (this oligonucleotide is targeted to the […] 3'UTR at nucleotides 5218 to 5199). These oligonucleotides were chemically modified as follows: A equals 2'-deoxyriboadenosine; C equals 2'-deoxyribocytidine; G equals 2'-deoxyriboguanosine; T equals 2'-deoxyribothymidine; A equals riboadenosine; U equals uridine; C equals ribocytidine; and G equals riboguanosine. The underlined bases were 2'-methoxyribose substituted nucleotides. Non-underlined bases indicate deoxyribose nucleosides. The backbone of each oligonucleotide consisted of a phosphorothioate linkage between adjoining nucleotides.

DNA MeTase protein [2] = experiment: DNA MeTase protein levels by Western blotting in A549 cells; format: cell-based, human; details: 20, 40 or 80 nM with lipofectin, 4 h on day 0 and day 1, harvest day 2
Text: as §1
The MG88 and MG208 oligonucleotides were diluted to the desired concentration from a 0.1 mM stock solution in the transfection media. Cells were exposed to oligonucleotide plus lipofectin (or lipofectin only) for four hours on day 0 and four hours on day 1 (after each four hour treatment, cells were returned to complete media). On day 2 (i.e., 48 hours after the first treatment on day 0), cells were harvested, whole cell lysates were prepared, and DNA MeTase protein levels were analyzed by Western blotting analysis with a DNA MeTase-specific rabbit polyclonal antibody (generated according to standard techniques of a glutathione S -transferase fusion protein containing the first 10 kDa amino terminus from DNA methyltransferase protein). […]

## 5′-AAGCAT GAG CAC CGT TCUCC-3′ [MG88]
DNA MeTase protein [1]; 20, 40 or 80 nM with lipofectin, 4 h on day 0 and day 1, harvest day 2
  reduction in DNA MeTase protein levels: dose-dependent reduction in DNA MeTase protein levels
DNA MeTase protein [1]; after 10 day treatment with 40 nM
  return of DNA MeTase protein to control levels post-treatment: 5 to 7 days
pRb
  phosphorylated forms of pRb: decrease in the amount of phosphorylated forms of pRb
Human DNA MeTase mRNA
  IC50: 40 nM
DNA MeTase protein [2]
  reduction in DNA MeTase protein levels: dose-dependent reduction in DNA MeTase protein levels
